Earlier results as cited in publication PMC4412257, “2′,6′-Dimethylphenylalanine: A Useful Aromatic Amino Acid Surrogate for Tyr or Phe Residue in Opioid Peptides” (International Journal of Medicinal Chemistry, 2012).
No end group written: not given here.

How the values were obtained:
[1] = target: human ORL1 receptor; design: method as in PMID 16321540; conditions: read-out: IC50 ± SEM, ORL1 receptor, [3H]NOC; cell membrane expressing human ORL1 receptor in Hek-293 cells; cited from earlier work
[2] = system: guinea pig ileum (GPI); design: method as in PMID 16321540; conditions: cited from earlier work; for IC50: DYN analogs, read-out: GPI assay IC50 ± SEM; for Ke value of receptor selective antagonist CTAP (μ) / Ke value of receptor selective antagonist nor-BNI (κ) / Ke value of receptor selective antagonist N,N(Me)2Dmt-Tic-OH (δ): GPI assay, antagonist against the peptide
[3] = system: Aminopeptidase M; design: method as in PMID 16321540; conditions: determined by HPLC; cited from earlier work
[4] = design: method as in PMID 16321540; conditions: determined by HPLC; cited from earlier work
[5] = target: μ-opioid receptor; conditions: rat brain homogenate; read-out: IC50 ± SEM, opioid receptor, [3H]DAMGO (μ); cited from earlier work
[6] = target: δ-opioid receptor; conditions: rat brain homogenate; read-out: IC50 ± SEM, opioid receptor, [3H]DT (δ); cited from earlier work
[7] = target: κ-opioid receptor; design: method as in PMID 16321540; conditions: guinea pig brain homogenate; read-out: IC50 ± SEM, opioid receptor, [3H]U-69593 (κ); cited from earlier work

Substance | IC50 [1] [nM] | IC50 [2] [nM] | Half-life time, Aminopeptidase M [3] [min] | Half-life time, Rat brain homogenate [4] [min] | IC50 [5] [nM] | IC50 [6] [nM] | IC50 [7] [nM] | Ke value of receptor selective antagonist CTAP (μ) [2] [nM] | Ke value of receptor selective antagonist nor-BNI (κ) [2] [nM] | Ke value of receptor selective antagonist N,N(Me)2Dmt-Tic-OH (δ) [2] [nM]
DYN(1-13)-NH2 (YGGFLRRIRPKLK-NH2; UniProt P01213 207-219, looked up, fragment) [parent peptide, dynorphin A (1-13) amide, reference compound] | 18.8 ± 3.01 | 3.14 ± 1.13 | 15.5 | 435 | – | – | – | – | – | –
Met-enkephalin [reference compound] | – | – | <5 | 8.5 | – | – | – | – | – | –
[Dmp^1,4]DYN(1-13)-NH2 [compound 28] | 51.5 ± 1.62 | 1340 ± 303 | – | 770 | 251 ± 56.3 | 415 ± 185 | 5.45 ± 1.65 | 595 | 809 | –
[Dmp^1,4]NOC(1-13)-NH2 [compound 31] | 21.3 ± 3.2 | – | – | 27.1 | 56.8 ± 12.3 | 3410 ± 990 | 100 ± 29 | – | – | –
[Dmp^1]DYN(1-13)-NH2 [compound 27] | 6.6 ± 0.952 | 306 ± 68 | >30 | 577 | 16.4 ± 2.35 | 10.1 ± 6.02 | – | 115 | 10 | >1000
[Dmp^1]NOC(1-13)-NH2 [compound 30] | 0.814 ± 0.09 | – | 28 | 60.3 | 25 ± 6.5 | 292 ± 61 | 38.8 ± 16.7 | – | – | –
[Dmp^4]DYN(1-13)-NH2 [compound 26] | 188 ± 18.2 | 32.2 ± 9.16 | – | 315 | 22.4 ± 10.2 | 931 ± 723 | 0.044 ± 0.035 | 108 | 0.63 | 198
[Dmp^4]NOC(1-13)-NH2 [compound 29] | 51.6 ± 12.9 | – | – | 33.6 | 629 ± 433 | > 10000 | 299 ± 63 | – | – | –
